Where two headings read alike, the source gives them in different places. Non-standard residues stand in square brackets, D forms with d. Residues, ends and D or L forms follow the SMILES beside them. *: point of attachment. X1 = C[C@]12CC[C@H]3[C@@H](CCC4=CC(=O)CC[C@@]43C)[C@@H]1CC[C@@H]2C(=O)COC(=O)CCC(=O)*; dPhe(4-Cl) = N[C@H](Cc1ccc(Cl)cc1)C(=O)O; dPhe(4-F) = N[C@H](Cc1ccc(F)cc1)C(=O)O; d2Nal = N[C@H](Cc1ccc2ccccc2c1)C(=O)O; d3Pal = N[C@H](Cc1cccnc1)C(=O)O; ΔPro = O=C(O)[C@@H]1C=CCN1
How the values were obtained:
[1] = target: progesterone binding globulin (PBG); assay: Plasma protein binding assay, competition with [3H]progesterone in pregnant guinea pig plasma; conditions: for IC50: read-out: IC50, inhibition of [3H]progesterone binding to PBG
Experimental: (§1) Plasma Protein Binding Assay
(§2) Plasma protein binding was determined by the competitive binding of steroid conjugates, in the presence of [1,2,6,7-^3H]progesterone or [^3H]cortisol, to pregnant guinea pig plasma or human pregnant serum respectively. 20 μl serum was diluted with 2 ml dextran-coated charcoal solution (0.25 g dextran T-70, 2.5 g charcoal decolorizing powder, activated acid washed [Merck Ltd., Lutterworth, Leicestershire] in 500 ml PBS) and incubated at room temperature. After 30 mins the suspension was centrifuged at 3000×g for 10 minutes, the supernatant was removed and the pellet was discarded. 100 μl of diluted serum was aliquoted into centrifuge tubes, followed by 1 pmol[^3H]steroid/100 μl PBS. 100 μl PBS (total binding) or 200 pmol/100 μl unlabelled competing ligand ([…]) was added to diluted serum in duplicate. Tubes were vortexed and incubated at room temperature for 1 hour, then for an additional 15 minutes on ice. A further 750 μl dextran-coated charcoal suspension was added and incubated for 10 minutes on ice, followed by centrifugation at 4° C. for 5 minutes. The supernatant fluid was counted.

[2] = In vivo male rabbit study, disappearance of iodinated analogue from whole blood; conditions: rabbit, in vivo, iv
Experimental: In Vivo Studies in the Male Rabbit
To determine biological half-life of GnRH agonist-progesterone conjugates, 0.5 ml saline containing approximately 10,000,000 cpm of iodinated [D-Ala^6]GnRH or [D-Lys^6]GnRH-progesterone conjugate was injected as an i.v. bolus into the ear vein of a male rabbit. Rabbits were sedated with 0.4 ml Aceprom 10 (Milborrow Animal Health, Republic of South Africa) injected intramuscularly 3-4 minutes before start of experiment. A repeat injection was carried out after 2 hours. 1 ml blood samples were collected in heparinized tubes from an indwelling cannula placed in a vein of the contralateral ear. Whole blood was counted directly to determine disappearance from circulation. All experiments were carried out in accordance with Republic of South Africa regulations.

[3] = target: T1, cortisol binding globulin (CBG) (Homo sapiens, UniProt P08185); assay: Plasma protein binding assay, competition with [3H]cortisol in human pregnant serum; conditions: data not shown, read-out: IC50, prevention of [3H]cortisol binding
T1 construct: from tissue; host or cells: human pregnant serum (charcoal-stripped, diluted)
T1 sequence (P08185 23-405): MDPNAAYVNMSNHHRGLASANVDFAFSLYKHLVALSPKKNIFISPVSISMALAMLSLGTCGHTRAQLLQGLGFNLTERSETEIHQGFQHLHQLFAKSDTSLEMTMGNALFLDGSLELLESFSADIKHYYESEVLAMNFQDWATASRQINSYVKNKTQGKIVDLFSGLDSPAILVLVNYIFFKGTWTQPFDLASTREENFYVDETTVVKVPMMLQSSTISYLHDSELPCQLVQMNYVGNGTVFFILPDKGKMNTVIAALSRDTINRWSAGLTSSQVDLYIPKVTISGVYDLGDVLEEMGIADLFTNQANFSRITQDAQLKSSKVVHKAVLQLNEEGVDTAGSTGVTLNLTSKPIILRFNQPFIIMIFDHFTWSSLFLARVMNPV
Experimental: as §1, §2

male marmosets = assay: In vivo male marmoset study, plasma testosterone after s.c. injection; set-up: species or system Callithrix jacchus; conditions: 0.5 mg s.c.
Experimental: (§3) In Vivo Studies in the Male and Female Common Marmoset (Callithrix Jacchus)
Male marmoset studies: To determine duration of action at GnRH receptor, 0.5 mg GnRH antagonist-steroid conjugate was administered as subcutaneous bolus in 1 ml saline at two sites in six adult male marmosets. Testosterone concentrations were monitored by RIA. GnRH antagonist (0.5 mg) was administered as a subcutaneous bolus in 1 ml saline at two sites in three marmosets. Testosterone concentrations were monitored. One 300 μl blood sample was withdrawn on the day prior to GnRH antagonist injection and at 0 hours, 4 hours and 8 hours on the day of injection and on the following 3 days. Three further samples were taken during the subsequent week.

[4] = system: cycling adult female marmosets; assay: In vivo female marmoset study, inhibition of corpus luteum function; set-up: species or system Callithrix jacchus; conditions: one animal; for duration of the luteal phase after treatment: mid-luteal phase
Experimental: as §3
Female marmoset studies: To identify the effective dose required to inhibit corpus luteum function, 1.0, 0.5 or 0.25 mg of GnRH antagonist-steroid conjugate was administered as subcutaneous bolus in 1 ml saline at two sites during mid-luteal phase. Progesterone concentrations were monitored by RIA. One 300 μl blood sample was withdrawn on the day prior to GnRH antagonist injection. Further blood samples of equal size were withdrawn at 0, 4 and 8 hours on day of injection and on the following 3 days. Blood samples were taken three times per week until the next ovulation.

## CC(=O)N1CC=C[C@H]1C(=O)N[C@H](Cc1ccc(F)cc1)C(=O)N[C@H](Cc1c[nH]c2ccccc12)C(=O)N[C@@H](CO)C(=O)N[C@@H](Cc1ccc(O)cc1)C(=O)N[C@H](CCCCNC(=O)CCC(=O)OCC(=O)[C@H]1CC[C@H]2[C@@H]3CCC4=CC(=O)CC[C@]4(C)[C@H]3CC[C@]12C)C(=O)N[C@@H](CC(C)C)C(=O)N[C@@H](CCCNC(=N)N)C(=O)N1CCC[C@H]1C(=O)NCC(N)=O [antagonist B-progesterone, Ac-ΔPro-D-Fpa-D-Trp-Ser-Tyr-D-Lys-Leu-Arg-Pro-Gly-NH2 conjugated to 21-hydroxyprogesterone 21-succinate at the ε amine of D-Lys at position 6] (Ac-[ΔPro][dPhe(4-F)][dW]SY[dK](X1)LRPG-NH2)
[1]; listed as antagonist B-progesterone conjugate
  IC50: 530 nM
[1]; listed as antagonist peptide B-progesterone
  IC50: 450 nM

## [D-Ala^6]GnRH [reference compound]
[2]
  second phase half-life (metabolism and renal clearance): 21 ± 3 min

## CC(=O)[C@H]1CC[C@H]2[C@@H]3CCC4=CC(=O)CC[C@]4(C)[C@H]3CC[C@]12C [progesterone, reference compound]
[1]
  IC50: 96 nM
[3]
  IC50: 73 nM

## CC(=O)N[C@H](Cc1ccc2ccccc2c1)C(=O)N[C@H](Cc1ccc(Cl)cc1)C(=O)N[C@H](Cc1cccnc1)C(=O)N[C@@H](CO)C(=O)N[C@@H](CCCNC(=N)N)C(=O)N[C@H](CCCCNC(=O)CCC(=O)OCC(=O)[C@H]1CC[C@H]2[C@@H]3CCC4=CC(=O)CC[C@]4(C)[C@H]3CC[C@]12C)C(=O)N[C@@H](CC(C)C)C(=O)N[C@@H](CCCNC(=N)N)C(=O)N1CCC[C@H]1C(=O)N[C@H](C)C(N)=O [antagonist A-progesterone, AcD-Nal-D-Cpa-D-Pal-Ser-Arg-D-Lys-Leu-Arg-Pro-D-Ala-NH2 conjugated to 21-hydroxyprogesterone 21-succinate at the ε amine of D-Lys at position 6] (Ac-[d2Nal][dPhe(4-Cl)][d3Pal]SR[dK](X1)LRP[dA]-NH2)
[1]; listed as antagonist A-progesterone conjugate
  IC50: 1000 nM
[1]; listed as antagonist peptide A-progesterone
  IC50: 850 nM
Male marmosets
  day by which testosterone had recovered: ≤ 6 days
  effect on plasma testosterone concentrations: rapidly decreased testosterone concentrations
  time to which reduction in testosterone concentration was maintained post-injection: at least 72 hours
[4]; 0.25 mg s.c.
  luteal regression and subsequent ovulation: full luteal regression and subsequent ovulation did not occur
  plasma progesterone concentrations: transient reduction in plasma progesterone concentrations
[4]; 0.5 mg s.c., before 21.0±1.2 days
  duration of the luteal phase after treatment: 11 days
[4]; 1.0 mg s.c., before 24.8±2.2 days
  duration of the luteal phase after treatment: 8 days

## C[C@]12CCC(=O)C=C1CC[C@@H]1[C@@H]2[C@@H](O)C[C@@]2(C)[C@H]1CC[C@]2(O)C(=O)CO [cortisol, reference compound]
[1]
  inhibition of specific [3H]progesterone binding (specificity): failure of cortisol to inhibit specific [^3H]progesterone binding
[3]
  IC50: 6.7 nM

## CC(=O)N[C@H](Cc1ccc2ccccc2c1)C(=O)N[C@H](Cc1ccc(Cl)cc1)C(=O)N[C@H](Cc1cccnc1)C(=O)N[C@@H](CO)C(=O)N[C@@H](CCCNC(=N)N)C(=O)N[C@H](CCCCN)C(=O)N[C@@H](CC(C)C)C(=O)N[C@@H](CCCNC(=N)N)C(=O)N1CCC[C@H]1C(=O)N[C@H](C)C(N)=O [antagonist A, [AcD-Nal^1,D-Cpa^2,D-Pal^3,Arg^5,D-Lys^6,D-Ala^10]GnRH, reference compound] (Ac-[d2Nal][dPhe(4-Cl)][d3Pal]SR[dK]LRP[dA]-NH2)
Male marmosets
  effect on plasma testosterone concentrations: rapid decline in plasma testosterone concentrations
  time by which testosterone had increased again: ≤ 24 h
  time to which reduction in testosterone concentration was maintained post-injection: 8 h

From patent US7700559B2, “Gonadotropin releasing hormone analogues conjugates with steroid hormones” (Medical Research Council, priority 2003, dated 2010)
